The target in assay [1] is T1, Thymidylate synthase (Homo sapiens, UniProt P04818). The assay can be described thus: Competitive inhibition of thymidylate synthetase (unknown origin) in presence of 5,10-methylenetetrahydrofolate.
Target sequence in this assay (P04818 whole entry): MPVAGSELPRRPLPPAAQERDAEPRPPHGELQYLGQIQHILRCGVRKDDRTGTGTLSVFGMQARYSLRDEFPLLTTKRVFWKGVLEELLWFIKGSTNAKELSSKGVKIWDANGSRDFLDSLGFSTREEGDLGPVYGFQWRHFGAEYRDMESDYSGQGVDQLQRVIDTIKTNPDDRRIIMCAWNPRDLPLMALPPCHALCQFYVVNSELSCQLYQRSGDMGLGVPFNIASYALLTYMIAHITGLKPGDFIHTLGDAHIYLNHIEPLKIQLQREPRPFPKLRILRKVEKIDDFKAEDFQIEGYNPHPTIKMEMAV
For assay [2], the target named is T1, Thymidylate synthase. Description: Inhibition of thymidylate synthetase (unknown origin) assessed as decrease of first order enzyme activity in absence of 5,10-methylenetetrahydrofolate.
Target sequence in this assay (P04818 2-313 limits assumed): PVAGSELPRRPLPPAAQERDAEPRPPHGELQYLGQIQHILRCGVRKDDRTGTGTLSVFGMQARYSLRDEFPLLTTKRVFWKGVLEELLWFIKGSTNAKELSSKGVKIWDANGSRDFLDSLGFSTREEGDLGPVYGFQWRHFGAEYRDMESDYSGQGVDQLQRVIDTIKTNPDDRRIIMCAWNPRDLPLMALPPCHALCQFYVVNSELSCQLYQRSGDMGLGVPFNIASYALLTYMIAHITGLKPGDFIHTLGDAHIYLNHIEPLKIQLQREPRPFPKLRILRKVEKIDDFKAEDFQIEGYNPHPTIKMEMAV
Assay [3] has as its target T1, Thymidylate synthase. The assay can be described thus: Inhibition of thymidylate synthetase (unknown origin) assessed as decrease of first order enzyme activity in absence of 5,10-methylenetetrahydrofolate and presence of dUMP.
Target sequence in this assay (P04818 2-313 limits assumed): as above
Assay [4] deals with T1, Thymidylate synthase. The assay can be described thus: Binding affinity to thymidylate synthetase (unknown origin).
Target sequence in this assay (P04818 whole entry): as the sequence (P04818 whole entry) above

The source made the active and inactive calls. No cut-off for these calls is given here.

One may read the Ki as the equilibrium dissociation constant of an inhibitor or competing ligand from its target. Usually Kd stands for the equilibrium constant for the complex coming apart. Read a high Kd as weaker binding.

With `O=c1[nH]c(=O)n([C@H]2C[C@H](O)[C@@H](COP(=O)(O)O)O2)cc1/C=C/C(F)(F)F`, the inhibition constant (Ki) at Thymidylate synthase [1] is 8.6 µM. Moreover, the inhibition result at Thymidylate synthase [2] was “Active”. Further, the inhibition entry on Thymidylate synthase [3] was “inactive”. On Thymidylate synthase [4], the dissociation constant Kd came out at 25 µM.

Source of the values: ChEMBL document CHEMBL3228011, “trans-5-(3,3,3-Trifluoro-1-propenyl-)-2'-deoxyuridylate: a mechanism-based inhibitor of thymidylate synthetase” (J Med Chem, 1979).
